In patent US10300155B2, “Alpha-synuclein ligands” (Washington University, priority 2015, dated 2019):
Where “and” joins values, the source holds several entries; their conditions need not be identical. Identical values can stand only once.

How the values were obtained:
α-synuclein fibrils [1] = biological target: T1, α-synuclein fibrils (Homo sapiens, UniProt P37840); experiment: ThT competitive assay for α-synuclein fibrils (Table 1); format: binding; conditions: for EC50: α-synuclein fibrils
T1 construct: made in house; host or cells: E. coli BL21(DE3)RIL
Procedure, shortened: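 Competition against ThT binding to recombinant (E. coli) human α-synuclein fibrils, pelleted from a 72 hour fibril reaction and quantified by BCA. Mixtures incubated 60 minutes at room temperature with shaking; ThT fluorescence read. Ki derived from EC50 via Cheng-Prusoff using the ThT saturation Kd.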

Aβ fibrils [2] = biological target: T2, Aβ fibrils (Homo sapiens, UniProt P05067); experiment: ThT competitive assay for Aβ fibrils (Table 2); format: binding; parameters: made in house; host or cells: E. coli; conditions: for EC50: Aβ fibrils
Description: […] recombinant protein was produced in E. coli. Additional preparation was performed in a similar fashion to Example 115. […] The inhibitor that binds with highest affinity to Aβ fibrils has the lowest dissociation constant (Ki).

tau fibrils [3] = biological target: T3, tau fibrils (Homo sapiens, UniProt P10636); experiment: ThT competitive assay for tau fibrils (Table 3); format: binding; parameters: made in house; host or cells: E. coli; conditions: for EC50: tau fibrils
Description: Tau fibril recombinant protein was produced in E. coli. Additional preparation was performed in a similar fashion to Example 115.
Target sequence in this assay (P10636 560-692 limits assumed): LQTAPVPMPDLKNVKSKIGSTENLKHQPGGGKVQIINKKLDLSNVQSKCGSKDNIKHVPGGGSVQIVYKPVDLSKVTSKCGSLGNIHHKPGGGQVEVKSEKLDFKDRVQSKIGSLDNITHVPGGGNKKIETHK

α-synuclein fibrils [4] = biological target: T1, α-synuclein fibrils; experiment: ThT saturation binding to α-synuclein fibrils (Example 116); conditions: saturation curve
Description: The mixture was incubated at room temperature for 1 hour on the shaking plate. The reaction plate was scanned by the excitation wavelength range from 430 to 465 nm. The maximum excitation wavelength (λex) was determined according to the fluorescent intensity-excitation wavelength curve. At (λex), the emission wavelength was scanned to get maximum emission wavelength (λem).
The mixture was incubated at room temperature for 1 hour on the shaking plate. The fluorescent intensity for each cell was measured by the fluorescence reader at λex and λem.

α-synuclein fibrils [5] = biological target: T1, α-synuclein fibrils; experiment: Radioligand binding assay with α-synuclein fibrils (Table 8)
AD Tissue = experiment: Radioligand saturation binding, AD postmortem brain tissue; parameters: species or system human; conditions: brain tissue homogenate
PD Tissue = experiment: Radioligand saturation binding, PD postmortem brain tissue; parameters: species or system human; conditions: brain tissue homogenate
Description: (§1) Brain tissue samples were selected from an autopsy case series of patients evaluated for parkinsonism by movement disorders specialists at the Movement Disorders Center of Washington University School of Medicine in St. Louis. The clinical diagnosis of idiopathic PD was based on modified United Kingdom Parkinson's Disease Society Brain Bank clinical diagnostic criteria with clear clinical response to levodopa [Hughes, A. J., et al, “Accuracy of clinical diagnosis of idiopathic Parkinson's disease: a clinico-pathological study of 100 cases,” 1992, J. Neurol. Neurosurg. Psychiatry, 55:181-184]. Dementia was determined by a movement disorders specialist based on clinical assessment of cognitive dysfunction sufficiently severe to impair activities of daily living, with further evaluation of cognitive impairment using the AD8 and Mini-Mental Status Exam (MMSE) [Galvin, J. E., et al., “The AD8: a brief informant interview to detect dementia,” 2005, Neurology 65:559-564; Folstein, M. F., et al., ““Mini-mental state”. A practical method for grading the cognitive state of patients for the clinician,” 1975, J. Psychiatr Res, 12:189-198]. LB stage was assessed at autopsy using a PD staging scale (range: 0, 1-6) [Braak, H., et al., “Stages in the development of Parkinson's disease-related pathology,” 2004, Cell Tissue Res., 318:121-134]. PD cases were selected based on a clinical diagnosis of PD plus dementia, Braak LB stage 5-6 pathology, and the absence of significant Aβ or tau pathology determined by immunohistochemistry. Control cases were selected based on the absence of α-synuclein, Aβ and tau pathology. Samples were used from both male and female subjects.
(§2) Grey matter was isolated from frozen postmortem frontal cortex tissue by dissection with a scalpel. To prepare insoluble fractions, dissected tissue was sequentially homogenized in four buffers (3 ml/g wet weight of tissue) with glass Dounce tissue grinders (Kimble): 1) High salt (HS) buffer: 50 mM Tris-HCl pH 7.5, 750 mM NaCl, 5 mM EDTA; 2) HS buffer with 1% Triton X-100; 3) HS buffer with 1% Triton X-100 and 1 M sucrose; and 4) phosphate buffered saline (PBS). Homogenates were centrifuged at 100,000×g after each homogenization step and the pellet was resuspended and homogenized in the next buffer in the sequence. For comparison in initial binding studies, crude tissue homogenates were also prepared by homogenization of tissue in only PBS. […]
(§3) Saturation binding assays combine binding substrate and varying radioligand concentrations, with or without the addition of a high concentration (50-100 times the estimated Kd) of a competitor compound to determine nonspecific binding. […] Specific binding is determined by subtracting nonspecific binding from total binding. […]

Control Tissue = experiment: Radioligand saturation binding, control postmortem brain tissue; parameters: species or system human; conditions: brain tissue homogenate
Description: as §1, §2, §3

Aβ1-42 fibrils = biological target: T4, Aβ1-42 fibrils (Homo sapiens, UniProt P05067); experiment: Radioligand binding assay with Aβ1-42 fibrils (Table 8)
T4 construct: Synthetic Aβ42 peptide (1 mg) (Bachem, Torrance, Calif.); purchased Bachem, Torrance, Calif; host or cells: synthetic peptide
Description: Synthetic Aβ42 peptide (1 mg) (Bachem, Torrance, Calif.) was first dissolved in 50 μl DMSO. An additional 925 μl of mQ-H2O was added. Finally, 25 μl 1M Tris-HCl pH 7.6 was added to bring the final peptide concentration to 222 μM (1 mg/ml) [16]. The dissolved peptide was incubated for 30 h at 37° C. with shaking at 1000 rpm in an Eppendorf Thermomixer. Fibril formation was confirmed by ThioT fluorescence. To determine the concentration of fibrils, the fibril reaction mix was centrifuged at 15,000×g for 15 min to separate fibrils from monomer. The concentration of Aβ monomer in the supernatant was determined in a BCA protein assay using a BSA standard curve that contained DMSO at a percentage equivalent to the samples. […]
A fixed concentration (1 μM) of α-syn, Aβ, or tau fibrils were incubated for 2 h at 37° C. with increasing concentrations of ThioT in 30 mM Tris-HCl pH 7.4, 0.1% BSA in a reaction volume of 150 μl. Nonspecific binding was determined in a duplicate set of binding reactions containing the same concentration of ThioT with no fibrils. Fluorescence was determined in a Biotek plate reader using a 440/30 excitation filter and a 485/20 emission filter. […] The dissociation constant (Kd) and the maximal number of binding sites (Bmax) values were determined by fitting the data to the equation Y=Bmax*X/(X+Kd) by nonlinear regression using Graphpad Prism software (version 4.0).

tau fibrils [6] = biological target: T3, tau fibrils; experiment: Radioligand binding assay with tau fibrils (Table 8); parameters: made in house; host or cells: E. coli BL21(DE3)RIL
Target sequence in this assay (P10636 560-692): as the sequence (P10636 560-692 limits assumed) above

α-synuclein fibrils [7] = biological target: T1, α-synuclein fibrils; experiment: Thioflavin T competition assay (Example 130, Table 9), α-synuclein fibrils; format: binding
Description: Freshly transformed BL21 colonies were inoculated into 2 L baffled flasks containing 250 ml sterilized TB (1.2% bactotryptone, 2.4% yeast extract, 0.4% glycerol, 0.17 M KH2PO4, 0.72 M K2HPO4) with 50 μg/ml ampicillin, and incubated overnight at 37° C. with shaking.
(§4) Competition assays used a fixed concentration of α-syn, Aβ, or tau fibrils (1 μM), consisting of 3 μM, 50 nM and 4 μM of ThioflavinT respectively. […] To optimize the determination of selectivity, assays for all three fibril species were set up in parallel using a common set of intermediate compound dilutions for each analog. Reactions were incubated at room temperature for 1.5 h before quantifying bound ligand as described above for the saturation binding assay. […] All data points were performed in triplicate. Nonspecific fluorescence was measured in parallel reactions containing ThioT plus each concentration of competitor but no fibrils, and these measurements were subtracted from the reactions with fibrils to yield fibril-specific fluorescence. Data were analyzed using Graphpad. Prism software (version 4.0) to obtain EC50 values by fitting the data to the equation Y=bottom+(top-bottom)/(1+10^(x−log EC50)).

tau fibrils [8] = biological target: T3, tau fibrils; experiment: Thioflavin T competition assay (Example 130, Table 9), tau fibrils; format: binding; parameters: made in house; host or cells: E. coli BL21(DE3)RIL
Description: Recombinant tau protein was produced in E. coli.
as §4
Target sequence in this assay (P10636 560-692): as the sequence (P10636 560-692 limits assumed) above

Aβ fibrils [9] = biological target: T2, Aβ fibrils; experiment: Thioflavin T competition assay (Example 130, Table 9), Aβ fibrils; format: binding; parameters: Synthetic Aβ42 peptide (1 mg) (Bachem, Torrance, Calif.); purchased Bachem, Torrance, Calif; host or cells: synthetic peptide
Description: An additional 925 μl of mQ-H2O was added. […] Fibril formation was confirmed by ThioT fluorescence.
as §4

[10] = average, read-out: Ki (nM) α-syn (avg)
[11] = individual determinations, read-out: Ki (nM) α-syn
[12] = average, read-out: EC50 (nM) EC50 (avg)
[13] = individual determinations, read-out: EC50 (nM) EC50
[14] = average, read-out: EC50(nM) EC50 (avg)
[15] = individual determinations, read-out: EC50(nM) EC50
[16] = average, read-out: Ki (nM) Aβ (avg)
[17] = individual determinations, read-out: Ki (nM) Aβ
[18] = average, read-out: Ki (nM) Tau (avg)
[19] = individual determinations, read-out: Ki (nM) Tau
[20] = average, read-out: EC50m (nM) EC50 (avg)
[21] = individual determinations, read-out: EC50m (nM) EC50

T2 sequence (P05067 672-713 limits assumed): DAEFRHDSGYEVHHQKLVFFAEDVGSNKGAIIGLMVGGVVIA
T4 sequence (P05067 672-713 limits assumed): as above

SMILES	Ki (α-synuclein fibrils [1]; [10])	Ki (α-synuclein fibrils [1]; [11])	EC50 (α-synuclein fibrils [1]; [12])	EC50 (α-synuclein fibrils [1]; [13])	EC50 (Aβ fibrils [2]; [14])	EC50 (Aβ fibrils [2]; [15])	Ki (Aβ fibrils [2]; [16])	Ki (Aβ fibrils [2]; [17])	Ki (tau fibrils [3]; [18])	EC50 (tau fibrils [3]; [20])	EC50 (tau fibrils [3]; [21])	also measured
COc1ccc(/C=C/c2cccs2)cc1 [TZ-34-26]	176 nM	51.3 nM and 283 nM and 126 nM and 291 nM and 82 nM and 221 nM	460 nM	134 nM and 739 nM and 329 nM and 762 nM and 214 nM and 580 nM	6660 nM	6660 nM	2500 nM	2500 nM	1370 nM	3350 nM	3350 nM	Ki (tau fibrils [3]; [19]): 1370 nM
COc1ccc(/C=C/c2ccco2)cc1 [TZ-34-24]	345 nM	610 nM and 163 nM and 262 nM	902 nM	1590 nM and 426 nM and 686 nM	2280 nM	2560 nM and 2000 nM	888 nM	961 nM and 815 nM	–	–	–	–
COc1ccc(/C=C/c2ccc(-c3cnc(C)s3)s2)cc1 [TZ-34-43]	134 nM	–	351 nM	–	854 nM	854 nM	320 nM	320 nM	512 nM	1260 nM	1260 nM	Ki (tau fibrils [3]; [19]): 512 nM
Cc1ccc2c(c1)sc(-c1ccc(N(C)C)cc1)[n+]2C [ThT, Thioflavin T]	–	–	–	–	–	–	–	–	–	–	–	Bmax for ThioT binding to fibrils (α-synuclein fibrils [4]): 5672 afu
COc1ccc2nc(/C=C/c3ccnc(OC)c3)ccc2c1 [TZ-36-28-2T]	51.8 nM	37 nM and 40 nM and 87 nM and 66 nM and 29 nM	136 nM	98 nM and 105 nM and 226 nM and 174 nM and 76 nM	715 nM	715 nM	268 nM	268 nM	34 nM	82 nM	82 nM	Kd (α-synuclein fibrils [5]): 0.03 µM; Kd (AD Tissue): 0.013 µM
COc1ccc2nc(/C=C/c3ccnc(OC)c3)ccc2c1 [[^11C]TZ-36-28-2T]	–	–	–	–	–	–	–	–	–	–	–	α-synuclein Bmax (pmol/nmol) (α-synuclein fibrils [5]): 51 pmol/nmol; Kd (PD Tissue): 0.055 µM; PD Tissue Bmax (pmol/nmol) (PD Tissue): 367 pmol/nmol; AD Tissue Bmax (pmol/nmol) (AD Tissue): 4316 pmol/nmol; Control Tissue Bmax (pmol/nmol) (Control Tissue): 1081 pmol/nmol; Kd (Control Tissue): 0.158 µM
COc1cc(/C=C/c2ccc3cc(OCC[18F])ccc3n2)ccn1 [[^18F]TZ-36-148]	–	–	–	–	–	–	–	–	–	–	–	α-synuclein Bmax (pmol/nmol) (α-synuclein fibrils [5]): 29 pmol/nmol; Aβ1-42 fibrils Bmax (pmol/nmol) (Aβ1-42 fibrils): 28 pmol/nmol; PD Tissue Bmax (pmol/nmol) (PD Tissue): 1510 pmol/nmol; AD Tissue Bmax (pmol/nmol) (AD Tissue): 12945 pmol/nmol; Control Tissue Bmax (pmol/nmol) (Control Tissue): 604 pmol/nmol; Tau fibrils Bmax (pmol/nmol) (tau fibrils [6]): 58 pmol/nmol
COc1cc(/C=C/c2ccc3cc(OCCF)ccc3n2)ccn1 [[^18F]TZ-36-148]	–	–	–	–	–	–	–	–	–	–	–	Kd (α-synuclein fibrils [5]): 0.09 µM; Kd (Aβ1-42 fibrils): 0.098 µM; EC50 (α-synuclein fibrils [7]; average, read-out: α-synuclein EC50 (avg)): 0.0467 µM; Ki (α-synuclein fibrils [7]; average, read-out: α-synuclein Ki (avg)): 0.018 µM; EC50 (α-synuclein fibrils [7]; individual determinations, read-out: α-synuclein EC50): 0.0445 µM and 0.049 µM; Ki (α-synuclein fibrils [7]; individual determinations, read-out: α-synuclein Ki): 0.017 µM and 0.019 µM; Kd (PD Tissue): 0.167 µM; Kd (AD Tissue): 0.083 µM; Kd (Control Tissue): 0.477 µM; Kd (tau fibrils [6]): 0.051 µM; EC50 (tau fibrils [8]; average, read-out: Tau fibrils EC50 (avg)): 0.278 µM; Ki (tau fibrils [8]; individual determinations): 0.124 µM and 0.102 µM; EC50 (tau fibrils [8]; individual determinations, read-out: Tau fibrils EC50): 0.305 µM and 0.251 µM; EC50 (Aβ fibrils [9]; average, read-out: Aβ-fibrils EC50 (avg)): 0.449 µM; Ki (Aβ fibrils [9]; average, read-out: Aβ-fibrils Ki (avg)): 0.168 µM; EC50 (Aβ fibrils [9]; individual determinations, read-out: Aβ-fibrils EC50): 0.435 µM and 0.462 µM; Ki (Aβ fibrils [9]; individual determinations, read-out: Aβ-fibrils Ki): 0.163 µM and 0.173 µM
